Experiments:
[1] = biological target: LRRK2 Ser935 phosphorylation in SH-SY5Y cells over-expressing recombinant full length LRRK2 (Homo sapiens (Human), UniProt Q5S007); assay: Recombinant cellular LRRK2 AlphaScreen assay; assay type: cell-based; details: 60 minutes, read-out: Recombinant cellular LRRK2 alphaScreen assay (pIC50) (converted)
Outline: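 SH-SY5Y cells transduced with BacMam full-length LRRK2 (MOI 50, 24 h) were treated 60 min at 37° C with serial dilutions (top final 10 μM). Lysates were probed by AlphaScreen using biotinylated anti-pSer935 and total-LRRK2 antibodies; dose-response fit to a sigmoidal model.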

[2] = biological target: Full length G2019 human LRRK2 (Homo sapiens (Human), UniProt Q5S007); assay: Full length G2019 human LRRK2 inhibition mass spectrometry assay; assay type: biochemical; details: Full length Flag-LRRK2, 25 uM LRRKtide, 2 mM ATP; for IC50: read-out: Full length G2019 human LRRK2 Inhibition mass spectrometry assay (pIC50) (converted)
Procedure: Mass Spectrometer Settings • LRRKtide Detection settings: Q1 mass 644.8 Da, Q3 mass 638.8, declustering potential 76 volts, collision energy 37 volts, CXP 34 volts • Phospho-LRRKtide Detection settings: Q1 mass 671.4 Da, Q3 mass 638.8, Declustering potential 76 volts, Collision energy 37 volts, CXP 34 volts. • A C4 cartridge was used and running buffers were: A (aqueous) 0.1% formic acid in water B (organic) 0.1% formic acid, 80% acetonitrile, 20% water • 5. Data was analysed using ActivityBase software (IDBS). A percent conversion from LRRKtide to Phospho-LRRKtide was calculated using the following formula: % conversion=(Phospho-LRRKtide product peak area/(Phospho-LRRKtide product peak area+LRRKtide substrate peak area))*100 2) Full Length G2019 Human LRRK2 Inhibition Mass Spectrometry Assay Insect Cell Cultures
Sf9 insect cells (Invitrogen Life Technologies, Carlsbad, Calif.) were maintained at 27° C. in SF 900 II SFM in 500-ml stationary flasks. The cells were maintained in exponential growth phase and subcultured twice per week. For larger volumes, cells were grown in 2-liter shaker flasks (Erlenmeyer, Corning) while being agitated with 120 rpm at 27° C. incubator shaker.
Human G2019 LRRK2 Plasmids Preparation
Primers Used for PCR Cloning:
• pHTBV-F: SEQ ID No: 1 • LRRK2 wt-F1: SEQ ID No: 2 • LRRK2 wt-R1: SEQ ID No: 3 • LRRK2 wt-F2: SEQ ID No: 4 • LRRK2 wt-R2: SEQ ID No: 5 • LRRK2 wt-F3: SEQ ID No: 6 • pHTBV-R: SEQ ID No: 7
The primers described above were used to amplify full length human LRRK2 (amino acids from 1-2527) with N terminal Flag tag from BioCat 116313 using high fidelity PCR polymerase KOD-Plus according to the manufacturer's instructions (KOD-211, TOYOBO). The PCR product was digested with BamHI and KpnI and ligated into BamHI and KpnI digested pHTBV1mcs3 (BioCat 127555). The sequence of the target fragment was confirmed by DNA sequencing. The construct BioCat141351 was generated by Novoprotein.
The G2019 full length Flag-LRRK2 coding sequence is SEQ ID No: 8.
The translated protein sequence for human G2019 full length LRRK2 flag tagged protein is SEQ ID No: 9.
Generation of the BacMam Virus
To generate the recombinant BacMam virus, SF9 cells were seeded in 6-well tissue culture dishes at 9×10^5 cells/well and allowed to attach for 20 min. Transfection procedure was followed using AESOP AP5911v2. Briefly, DH10Bac competent cells (10361-012, Invitrogen) were transformed by the genotypically normal human LRRK2 BacMam plasmid to generate the recombinant baculovirus DNA. The Sf9 insect cells were co-transfected with the mixture of recombinant baculovirus DNA and cellfectin (10362-100, Invitrogen). After 4 h of incubation at 27° C., the transfection media was replaced with Sf-900 III SFM medium containing 5% HI FBS (Ser. No. 10/100,147, Invitrogen). The cells were further incubated for 4 days. The infected cell culture medium containing the baculovirus (P0 virus stock) was collected and amplified by further infecting the Sf9 cells at multiplicity of infection (MOI) (pfu/cell) of 0.1.
Quantification of BacMam Viral Titre by BacPAKRapid Titer
The viral titre, measured as plaque forming unit (pfu)/ml was determined using BacPAK Papid Titer Kit (631406, Clontech) according to the manufacturer's protocol. The Sf9 cells seeded in 96-well plate with 3×10^5 cells per well were incubated with serial dilution of the viral stocks for 1 h at 27° C., 50 μl methyl cellulose overlay was added to each well followed by 43-47 h incubation. The cells were then fixed in 4% paraformaldehyde (PFA). After blocking the cells with diluted normal goat serum, Mouse anti-gp64 antibody was added to the cells. After 30 min incubation, the cells were washed with phosphate buffered saline containing 0.1% Triton-X100 (PBST) and incubated for another 30 min with goat anti-mouse antibody/HRP conjugate. This was followed by blue peroxidase substrate which detects the single infected cells and foci of infected cells by their dark blue color. […]

[3] = biological target: Truncated G2019 human LRRK2 (1326-2527) (Homo sapiens (Human), UniProt Q5S007); assay: Truncated G2019 human LRRK2 (1326-2527) inhibition mass spectrometry assay; assay type: biochemical; details: 6HIS-Tev-LRRK2 (1326-2527), 25 uM LRRKtide, 20 uM ATP; read-out: Truncated G2019 human LRRK2 inhibition mass spectrometry assay (pIC50) (converted)
Description: 1) Truncated G2019 Human LRRK2 (1326-2527) Inhibition Mass Spectrometry Assay
A LRRK2 cDNA encoding residues 1326-2527 was received from Dundee University (described in M. Jaleel et al., 2007, Biochem J, 405: 407-417). This gene fragment was subcloned into pFB-HTb (Invitrogen) using BamHI and NotI restriction sites. The LRRK2 plasmid was recombined into the baculovirus genome according to the BAC-to-BAC protocol described by Invitrogen. Transfection into Spodoptera frugiperda (Sf9) insect cells was performed using Cellfectin (Invitrogen), according to the manufacturer's protocol to generate P1 and P2 baculovirus stocks.
Sf9 cells were grown in HyClone SFX (Thermo Scientific) growth media at 27° C., 80 rpm in shake flask until of a sufficient volume to inoculate a bioreactor. The cells were grown in a 20 litre working volume Wave bioreactor (GE Healthcare) at 27° C., 50% dissolved oxygen and an agitation rate 22 rocks per minute, 10 degree rock angle, 200 ml/min air with a cell concentration of approximately 6xe6 cells/ml. The cells were infected with P2 Baculovirus at a multiplicity of infection (MOI) of 3. The cultivation was continued for a 48 hour expression phase. The infected cells were removed from the growth media by centrifugation at 2500 g using a Sorvall RC 3C Plus centrifuge at 2500 g for 20 minutes. The cell pellet was immediately frozen and subsequently supplied for purification.
A 260 g pellet was allowed to thaw in a water bath at 27° C. with 800 ml lysis buffer/buffer A (50 mm Tris-HCl pH 8.5, 300 mM NaCl, 1 mm DTT, 10% glycerol, 1 ml/L Calbiochem complete protease inhibitor cocktail and benzonase (50 ul/800 ml)) before being dounce homogenised on ice using 20 strokes per 100 ml. The suspension was packed in ice and sonicated at 50% amplitude for 3 min 10 sec on/off using a ¾″ probe. The suspension was then centrifuged at 100,000 g for 90 min, at 4° C.
The lysate (700 ml) was decanted from the insoluble pellet and contacted for 3h at 4° C. with 10 ml His bind Ni NTA resin by end over end mixing. The resin was recovered by centrifugation, 3000 g, 5 min at 4° C., and packed in an XK16 column. The column was then washed with 10 column volumes buffer A, 10 column volumes buffer B (buffer A+1M NaCl) and 10 column volumes buffer C (buffer A+20 mM imidazole). The column was then eluted with 15 column volumes buffer D (buffer A+300 mM imidazole) collecting 2 ml fractions. All washes and elution were conducted at 4 ml/min.
Fractions identified by SDS-PAGE as containing protein of interest were pooled and loaded directly onto a 320 ml SEC Superdex 200 pg column that was pre-equilibrated with buffer E (50 mM Tris-HCl pH 8.5, 300 mM NaCl, 10% glycerol, 1 mM DTT). The column was loaded and eluted with 1.2 column volumes buffer E at 2 ml/min collecting 2 ml fractions. Fractions identified by SDS-PAGE as containing protein of interest were tested for activity.
Production of LRRKtide for LRRK2 Inhibition Mass Spectrometry Assay
The ‘LRRKtide’ peptide (SEQ ID NO. 10) was synthesized as follows. The protected peptide was assembled on a solid-phase synthesiser using preloaded Wang resin and utilising standard Fmoc synthesis protocols. The crude peptide was obtained after cleavage from the resin with a mixture of trifluoroacetic acid (TFA), triisopropylsilane and water (95:2.5:2.5) for 3 hours at room temperature and was then purified using a C18 reverse-phase column utilising a 0.1% TFA-buffered water/acetonitrile gradient. The resulting fractions were analysed and fractions which were >95% pure by analytical HPLC and giving the correct molecular weight (mw) (by MALDiTOF mass spectroscopy) were pooled and freeze dried. The final material was analysed by HPLC and MALDiTOF mass spectroscopy.
Truncated G2019 Human LRRK2 (1326-2527) Inhibition Mass Spectrometry Assay […]

LRRK2 Ser935 phosphorylation in SH-SY5Y cells over-expressing recombinant full length LRRK2, sequence (Q5S007 whole entry): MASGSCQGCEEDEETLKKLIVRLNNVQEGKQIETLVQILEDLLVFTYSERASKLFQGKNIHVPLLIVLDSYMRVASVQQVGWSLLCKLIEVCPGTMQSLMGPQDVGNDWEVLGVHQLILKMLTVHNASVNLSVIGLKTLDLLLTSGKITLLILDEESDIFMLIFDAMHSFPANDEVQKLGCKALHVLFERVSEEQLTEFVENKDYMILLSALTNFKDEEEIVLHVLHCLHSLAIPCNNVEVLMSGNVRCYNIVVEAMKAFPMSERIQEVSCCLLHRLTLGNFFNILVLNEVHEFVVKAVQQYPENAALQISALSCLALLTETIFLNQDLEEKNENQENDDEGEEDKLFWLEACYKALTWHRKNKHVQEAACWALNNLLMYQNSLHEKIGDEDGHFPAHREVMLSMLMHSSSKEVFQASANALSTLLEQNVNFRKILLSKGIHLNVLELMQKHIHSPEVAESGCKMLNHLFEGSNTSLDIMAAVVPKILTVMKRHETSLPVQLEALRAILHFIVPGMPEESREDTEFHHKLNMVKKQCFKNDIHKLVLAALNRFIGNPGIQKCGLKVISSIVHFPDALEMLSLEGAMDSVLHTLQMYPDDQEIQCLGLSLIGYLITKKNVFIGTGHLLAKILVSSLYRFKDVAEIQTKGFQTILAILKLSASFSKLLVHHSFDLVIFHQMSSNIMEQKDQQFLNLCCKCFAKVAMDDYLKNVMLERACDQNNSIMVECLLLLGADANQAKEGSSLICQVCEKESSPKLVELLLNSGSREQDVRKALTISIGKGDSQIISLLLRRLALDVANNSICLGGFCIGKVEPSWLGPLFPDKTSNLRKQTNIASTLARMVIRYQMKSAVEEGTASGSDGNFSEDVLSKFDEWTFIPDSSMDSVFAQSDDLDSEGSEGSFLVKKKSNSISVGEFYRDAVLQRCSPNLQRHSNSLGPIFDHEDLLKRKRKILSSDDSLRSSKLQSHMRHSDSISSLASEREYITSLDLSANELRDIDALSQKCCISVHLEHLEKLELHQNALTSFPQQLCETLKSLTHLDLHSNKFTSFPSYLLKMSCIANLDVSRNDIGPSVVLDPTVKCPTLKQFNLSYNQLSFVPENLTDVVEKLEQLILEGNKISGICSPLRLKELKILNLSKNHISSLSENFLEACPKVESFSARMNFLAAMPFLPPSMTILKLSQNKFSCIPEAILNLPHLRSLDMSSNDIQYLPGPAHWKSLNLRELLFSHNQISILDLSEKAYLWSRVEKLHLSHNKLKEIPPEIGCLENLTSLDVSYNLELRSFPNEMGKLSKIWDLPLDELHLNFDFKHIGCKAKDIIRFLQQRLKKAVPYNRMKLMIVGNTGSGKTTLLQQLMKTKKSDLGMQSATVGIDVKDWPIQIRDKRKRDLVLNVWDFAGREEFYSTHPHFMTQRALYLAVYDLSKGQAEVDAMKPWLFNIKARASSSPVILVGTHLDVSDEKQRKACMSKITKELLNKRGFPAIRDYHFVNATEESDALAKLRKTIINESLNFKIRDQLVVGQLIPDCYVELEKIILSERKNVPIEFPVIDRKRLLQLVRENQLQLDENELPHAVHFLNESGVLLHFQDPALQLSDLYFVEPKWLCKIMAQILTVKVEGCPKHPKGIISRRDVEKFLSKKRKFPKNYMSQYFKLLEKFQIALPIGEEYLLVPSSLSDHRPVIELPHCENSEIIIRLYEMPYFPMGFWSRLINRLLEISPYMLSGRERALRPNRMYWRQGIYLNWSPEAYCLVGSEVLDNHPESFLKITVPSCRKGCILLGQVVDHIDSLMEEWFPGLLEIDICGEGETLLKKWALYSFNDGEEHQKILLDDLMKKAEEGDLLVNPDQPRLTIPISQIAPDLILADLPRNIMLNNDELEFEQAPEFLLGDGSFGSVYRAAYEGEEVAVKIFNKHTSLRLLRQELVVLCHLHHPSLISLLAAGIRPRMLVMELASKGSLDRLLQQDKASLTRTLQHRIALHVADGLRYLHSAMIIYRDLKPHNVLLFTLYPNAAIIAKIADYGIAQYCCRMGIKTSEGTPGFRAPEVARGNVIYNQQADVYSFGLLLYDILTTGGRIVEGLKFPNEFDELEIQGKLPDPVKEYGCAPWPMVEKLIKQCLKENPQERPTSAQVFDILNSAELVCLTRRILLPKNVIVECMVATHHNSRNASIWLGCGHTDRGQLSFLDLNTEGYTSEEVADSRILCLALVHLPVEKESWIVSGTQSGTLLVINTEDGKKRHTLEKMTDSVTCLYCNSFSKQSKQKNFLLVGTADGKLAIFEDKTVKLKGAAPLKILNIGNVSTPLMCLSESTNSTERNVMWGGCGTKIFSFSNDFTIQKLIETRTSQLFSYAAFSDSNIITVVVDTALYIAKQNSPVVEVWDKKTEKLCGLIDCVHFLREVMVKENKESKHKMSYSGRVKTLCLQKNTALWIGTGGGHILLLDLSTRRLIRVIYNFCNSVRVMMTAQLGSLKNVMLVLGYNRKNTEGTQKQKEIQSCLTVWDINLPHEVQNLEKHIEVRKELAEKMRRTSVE
Full length G2019 human LRRK2, sequence (Q5S007 other isoform, or with tags, fused parts or gaps): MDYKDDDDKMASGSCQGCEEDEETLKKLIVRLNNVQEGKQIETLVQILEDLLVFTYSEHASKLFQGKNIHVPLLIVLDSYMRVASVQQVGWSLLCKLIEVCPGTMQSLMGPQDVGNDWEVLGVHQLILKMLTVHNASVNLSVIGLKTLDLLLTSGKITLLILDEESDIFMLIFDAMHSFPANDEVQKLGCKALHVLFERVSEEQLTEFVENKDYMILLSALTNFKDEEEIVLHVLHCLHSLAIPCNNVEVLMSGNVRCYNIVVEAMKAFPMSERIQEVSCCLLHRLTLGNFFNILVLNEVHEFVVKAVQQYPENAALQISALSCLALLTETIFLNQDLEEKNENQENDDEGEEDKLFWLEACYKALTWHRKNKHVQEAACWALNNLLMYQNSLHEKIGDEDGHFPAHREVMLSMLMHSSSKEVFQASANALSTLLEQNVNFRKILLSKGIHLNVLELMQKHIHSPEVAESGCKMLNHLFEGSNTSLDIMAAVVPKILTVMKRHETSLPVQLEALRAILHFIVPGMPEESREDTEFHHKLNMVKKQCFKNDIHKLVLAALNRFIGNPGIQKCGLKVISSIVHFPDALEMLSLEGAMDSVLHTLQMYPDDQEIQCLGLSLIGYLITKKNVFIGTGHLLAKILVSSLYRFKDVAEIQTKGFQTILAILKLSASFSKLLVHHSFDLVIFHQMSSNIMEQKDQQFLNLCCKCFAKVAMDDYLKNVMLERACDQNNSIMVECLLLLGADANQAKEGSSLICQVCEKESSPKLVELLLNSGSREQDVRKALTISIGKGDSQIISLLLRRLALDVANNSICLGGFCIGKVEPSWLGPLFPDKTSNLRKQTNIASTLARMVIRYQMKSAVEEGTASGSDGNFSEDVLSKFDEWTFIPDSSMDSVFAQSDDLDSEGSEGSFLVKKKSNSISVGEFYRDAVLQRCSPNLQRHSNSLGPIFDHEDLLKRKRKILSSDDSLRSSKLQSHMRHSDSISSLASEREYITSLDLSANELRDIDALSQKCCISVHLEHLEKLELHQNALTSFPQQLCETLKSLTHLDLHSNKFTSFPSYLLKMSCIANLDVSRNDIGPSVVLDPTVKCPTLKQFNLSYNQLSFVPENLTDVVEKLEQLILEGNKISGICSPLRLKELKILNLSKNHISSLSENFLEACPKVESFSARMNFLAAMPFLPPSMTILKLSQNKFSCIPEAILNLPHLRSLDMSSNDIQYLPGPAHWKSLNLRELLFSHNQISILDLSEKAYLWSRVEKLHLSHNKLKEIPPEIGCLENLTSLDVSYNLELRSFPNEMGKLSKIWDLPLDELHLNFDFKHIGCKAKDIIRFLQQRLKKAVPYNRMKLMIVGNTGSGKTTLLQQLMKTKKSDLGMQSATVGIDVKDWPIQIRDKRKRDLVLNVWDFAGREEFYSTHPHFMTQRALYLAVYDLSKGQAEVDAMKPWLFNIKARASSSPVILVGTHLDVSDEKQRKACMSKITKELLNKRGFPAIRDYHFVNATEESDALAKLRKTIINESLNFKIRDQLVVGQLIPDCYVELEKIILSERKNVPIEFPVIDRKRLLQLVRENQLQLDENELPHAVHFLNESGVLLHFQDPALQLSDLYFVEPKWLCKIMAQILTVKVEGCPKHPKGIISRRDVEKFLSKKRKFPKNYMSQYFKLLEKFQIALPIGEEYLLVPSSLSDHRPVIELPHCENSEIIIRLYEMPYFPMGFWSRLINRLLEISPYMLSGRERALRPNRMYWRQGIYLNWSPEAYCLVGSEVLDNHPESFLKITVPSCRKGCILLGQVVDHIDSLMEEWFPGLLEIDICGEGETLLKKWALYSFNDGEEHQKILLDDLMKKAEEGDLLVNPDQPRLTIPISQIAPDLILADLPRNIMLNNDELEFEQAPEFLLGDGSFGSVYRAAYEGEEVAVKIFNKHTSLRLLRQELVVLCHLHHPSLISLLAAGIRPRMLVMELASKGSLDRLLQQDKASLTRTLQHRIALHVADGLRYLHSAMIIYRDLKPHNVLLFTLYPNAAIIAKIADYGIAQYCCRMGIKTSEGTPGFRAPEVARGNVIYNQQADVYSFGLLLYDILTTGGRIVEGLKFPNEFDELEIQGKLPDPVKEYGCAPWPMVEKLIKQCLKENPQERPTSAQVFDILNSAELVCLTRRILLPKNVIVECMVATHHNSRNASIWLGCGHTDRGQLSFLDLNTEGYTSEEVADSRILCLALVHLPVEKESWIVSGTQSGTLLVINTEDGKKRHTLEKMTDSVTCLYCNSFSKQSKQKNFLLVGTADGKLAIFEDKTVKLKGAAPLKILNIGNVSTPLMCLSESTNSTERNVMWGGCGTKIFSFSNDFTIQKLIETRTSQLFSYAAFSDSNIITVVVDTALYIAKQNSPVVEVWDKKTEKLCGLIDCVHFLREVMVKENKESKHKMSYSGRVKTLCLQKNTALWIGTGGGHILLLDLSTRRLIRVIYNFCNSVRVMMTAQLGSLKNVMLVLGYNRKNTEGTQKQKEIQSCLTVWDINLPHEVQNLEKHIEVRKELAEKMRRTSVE

Row | SMILES | IC50 [1] | Full length G2019 human LRRK2 Inhibition mass spectrometry assay (pIC50) [2] | IC50 [2] | IC50 [3]
1 | Cc1nc(N2CCO[C@H](CO)C2)cc(-n2ncc3cc(Cl)c(C4CCN(C5COC5)CC4)cc32)n1 [Example E208, (S)-(4-(6-(5-Chloro-6-(1-(oxetan-3-yl)piperidin-4-yl)-1H-indazol-1-yl)-2-methylpyrimidin-4-yl)morpholin-2-yl)methanol] | 0.0398 µM | 7.7 |  | 
2 | Cc1nc(N2CCO[C@@H](CO)C2)cc(-n2ncc3cc(C)c(C4CCOCC4)cc32)n1 [Example E239, (R)-(4-(2-Methyl-6-(5-methyl-6-(tetrahydro-2H-pyran-4-yl)-1H-indazol-1-yl)pyrimidin-4-yl)morpholin-2-yl)methanol] | 0.158 µM | 7.9 |  | 
3 | Cc1nc(N2CCO[C@@H](CO)C2)cc(-n2ncc3cc(C)c(C4CCNCC4)cc32)n1 [Example E188, (R)-(4-(2-Methyl-6-(5-methyl-6-(piperidin-4-yl)-1H-indazol-1-yl)pyrimidin-4-yl)morpholin-2-yl)methanol] | 0.0794 µM | 7.6 |  | 
4 | Cc1nc(N2CCO[C@H](CO)C2)cc(-n2ncc3cc(C)c(C4CCN(C5COC5)CC4)cc32)n1 [Example E183, (S)-(4-(2-Methyl-6-(5-methyl-6-(1-(oxetan-3-yl)piperidin-4-yl)-1H-indazol-1-yl)pyrimidin-4-yl)morpholin-2-yl)methanol] | 0.0631 µM | 7.9 |  | 
5 | COc1nc(N2CCOCC2)cc(-n2ncc3cc(C)c(C4CCNCC4)cc32)n1.Cl [Example E205, 4-(2-Methoxy-6-(5-methyl-6-(piperidin-4-yl)-1H-indazol-1-yl)pyrimidin-4-yl)morpholine] | 0.0501 µM | 7.7 |  | 
6 | COc1nc(N2CC(C)(O)C2)cc(-n2ncc3cc(C)c(C4CCN(C5COC5)CC4)cc32)n1 [Example E80, 1-(2-Methoxy-6-(5-methyl-6-(1-(oxetan-3-yl)piperidin-4-yl)-1H-indazol-1-yl)pyrimidin-4-yl)-3-methylazetidin-3-ol] | ≤ 0.1 µM |  | ≤ 10 µM | 
7 | COc1nc(N2CC(O)C2)cc(-n2ncc3cc(C)c(C4CN(C)CCO4)cc32)n1 (single isomer, unassigned) [Example E230, 1-(2-Methoxy-6-(5-methyl-6-(4-methylmorpholin-2-yl)-1H-indazol-1-yl)pyrimidin-4-yl)azetidin-3-ol] | 0.631 µM |  | 0.251 µM | 
8 | COc1nc(N2CCO[C@@H](CO)C2)cc(-n2ncc3cc(C)c(C4CCN(C5COC5)CC4F)cc32)n1 (single isomer, unassigned) [Example E170] | 0.00501 µM |  | 0.00794 µM | 
9 | Cc1nc(-n2ncc3cc(C)c(C4CCN(C5COC5)CC4F)cc32)cc([C@H]2C[C@@H](O)C2)n1 (single isomer, unassigned) [Example E45, (cis)-(1s,3s)-3-(6-(6-(3-Fluoro-1-(oxetan-3-yl)piperidin-4-yl)-5-methyl-1H-indazol-1-yl)-2-methylpyrimidin-4-yl)cyclobutanol] |  |  | ≤ 10 µM | 
10 | COc1nc(N2CC(O)C2)cc(-n2ncc3cc(C)c(C4CCN(C)CC4F)cc32)n1 (single isomer, unassigned) [Example E39, (cis)-1-(6-(6-(3-Fluoro-1-methylpiperidin-4-yl)-5-methyl-1H-indazol-1-yl)-2-methoxypyrimidin-4-yl)azetidin-3-ol] | 0.00501 µM |  |  | 0.01 µM
11 | Cc1nc(N2CC(O)C2)cc(-n2ncc3cc(C)c(C4CCN(C5COC5)CC4F)cc32)n1 (single isomer, unassigned) [Example E42, (cis)-1-(6-(6-(3-Fluoro-1-(oxetan-3-yl)piperidin-4-yl)-5-methyl-1H-indazol-1-yl)-2-methylpyrimidin-4-yl)azetidin-3-ol] | ≤ 0.1 µM |  | ≤ 10 µM | 

From patent US10975081B2, “Substituted fused pyrazole compounds and their use as LRRK2 inhibitors” (GlaxoSmithKline Intellectual Property Development Limited, priority 2015, dated 2021)
